Assay results: ChEMBL document CHEMBL3046216, “Synthesis, biological evaluation and QSAR study of a series of substituted quinazolines as antimicrobial agents” (2013)
≈ marks a conversion by molar mass, not a printed value. Calls of active or inactive are those of the source. No cut-off for these calls is given here.

Key:
Type in all cases: functional
Pseudomonas aeruginosa = experiment: Antimicrobial activity against Pseudomonas aeruginosa ATCC 27853 assessed as growth inhibition after 24 hr by NCCLS broth dilution method
Bacillus subtilis = experiment: Antimicrobial activity against Bacillus subtilis ATCC 6633 assessed as growth inhibition after 24 hr by NCCLS broth dilution method
Staphylococcus aureus = experiment: Antimicrobial activity against Staphylococcus aureus ATCC 25923 assessed as growth inhibition after 24 hr by NCCLS broth dilution method
Escherichia coli = experiment: Antimicrobial activity against Escherichia coli ATCC 25922 assessed as growth inhibition after 24 hr by NCCLS broth dilution method

Row | MIC (Pseudomonas aeruginosa) | MIC (Pseudomonas aeruginosa; ATCC 27853, 24 h) [µg/mL] | MIC (Bacillus subtilis) | MIC (Bacillus subtilis; ATCC 6633, 24 h) [µg/mL] | MIC (Staphylococcus aureus) | MIC (Staphylococcus aureus; ATCC 25923, 24 h) [µg/mL] | MIC (Escherichia coli) | MIC (Escherichia coli; ATCC 25922, 24 h) [µg/mL] | SMILES
1 | inactive | 100 (≈ 174 µM) | inactive | 50 (≈ 87.1 µM) | inactive | 25 (≈ 43.5 µM) | inactive | 50 (≈ 87.1 µM) | CN1CCN(c2cc3ncnc(Sc4nnc(-c5cccnc5)o4)c3cc2NC(=O)Nc2ccccc2Cl)CC1
2 | inactive | 25 (≈ 43.9 µM) | inactive | 75 (≈ 132 µM) | inactive | 50 (≈ 87.8 µM) | inactive | 100 (≈ 176 µM) | Cc1ccccc1NC(=S)Nc1cc2c(Sc3nnc(-c4cccnc4)o3)ncnc2cc1N1CCN(C)CC1
3 | inactive | 75 (≈ 158 µM) | inactive | 12.5 (≈ 26.3 µM) | inactive | 25 (≈ 52.5 µM) | inactive | 25 (≈ 52.5 µM) | O=C(Nc1ccc2ncnc(Sc3nnc(-c4cccnc4)o3)c2c1)Nc1ccccc1Cl
4 | inactive | 25 (≈ 40.6 µM) | inactive | 100 (≈ 162 µM) | inactive | 25 (≈ 40.6 µM) | inactive | 50 (≈ 81.2 µM) | CN1CCN(c2cc3ncnc(Sc4nnc(-c5cccnc5)o4)c3cc2NC(=O)Nc2ccc(-c3ccccc3)cc2)CC1
5 | inactive | 75 (≈ 165 µM) | inactive | 50 (≈ 110 µM) | inactive | 25 (≈ 54.9 µM) | inactive | 25 (≈ 54.9 µM) | Cc1ccccc1NC(=O)Nc1ccc2ncnc(Sc3nnc(-c4cccnc4)o3)c2c1
6 | inactive | 100 (≈ 176 µM) | inactive | 25 (≈ 43.9 µM) | inactive | 50 (≈ 87.8 µM) | inactive | 25 (≈ 43.9 µM) | Cc1cccc(NC(=S)Nc2cc3c(Sc4nnc(-c5cccnc5)o4)ncnc3cc2N2CCN(C)CC2)c1
7 | inactive | 100 (≈ 219 µM) | inactive | 75 (≈ 164 µM) | inactive | 50 (≈ 109 µM) | inactive | 50 (≈ 109 µM) | S=C(Nc1ccccc1)Nc1ccc2ncnc(Sc3nnc(-c4cccnc4)o3)c2c1
8 | inactive | 50 (≈ 103 µM) | inactive | 25 (≈ 51.3 µM) | inactive | 12.5 (≈ 25.6 µM) | inactive | 25 (≈ 51.3 µM) | COc1ccccc1NC(=S)Nc1ccc2ncnc(Sc3nnc(-c4cccnc4)o3)c2c1

Row | SMILES | MIC (Pseudomonas aeruginosa) | MIC (Pseudomonas aeruginosa; ATCC 27853, 24 h) [µg/mL] | MIC (Bacillus subtilis) | MIC (Bacillus subtilis; ATCC 6633, 24 h) [µg/mL] | MIC (Staphylococcus aureus) | MIC (Staphylococcus aureus; ATCC 25923, 24 h) [µg/mL] | MIC (Escherichia coli) | MIC (Escherichia coli; ATCC 25922, 24 h) [µg/mL]
9 | CN[C@@H]1[C@H](O[C@H]2[C@H](O[C@H]3[C@H](O)[C@@H](O)[C@H](N=C(N)N)[C@@H](O)[C@@H]3N=C(N)N)O[C@@H](C)[C@]2(O)C=O)O[C@@H](CO)[C@H](O)[C@H]1O [STREPTOMYCIN] | inactive | 3.12 (≈ 5.37 µM) | inactive | 6.25 (≈ 10.7 µM) | inactive | 6.25 (≈ 10.7 µM) | inactive | 3.12 (≈ 5.37 µM)
